Laboratory results taken from PMC7477889 (SLAS discovery : advancing life sciences R & D, 2020).
Entries after “also recorded” stand apart in the source; their conditions may differ. Read-outs that look alike come from different tables or passages of the source.

Tests used:
[1] = molecular target: T1, GFP-ARER (chimeric androgen receptor with ERα DBD) (Homo sapiens, UniProt P10275, A574V/A587S/A588I/A597P/A623V/C570Y/D601Q/DEL544-554/E566Y/E589Q/F607N/G564N/G578E/I562V/K558R/K591H/K593D/L561A/L575W/L595M/L627K/N611S/P555K/P556E/P613Q/Q557T/Q592N/R599T/S579G/S598A/S614A/T542S/T559Y/T576S/T626M/V582A); assay: GFP-ARER:PRL-HeLa high content analysis assay; type: cell-based
T1 sequence (P10275 with tags, fused parts or gaps T542S/DEL544-554/P555K/P556E/Q557T/K558R/T559Y/L561A/I562V/G564N/E566Y/C570Y/A574V/L575W/T576S/G578E/S579G/V582A/A587S/A588I/E589Q/K591H/Q592N/K593D/L595M/A597P/S598A/R599T/D601Q/F607N/N611S/P613Q/S614A/A623V/T626M/L627K): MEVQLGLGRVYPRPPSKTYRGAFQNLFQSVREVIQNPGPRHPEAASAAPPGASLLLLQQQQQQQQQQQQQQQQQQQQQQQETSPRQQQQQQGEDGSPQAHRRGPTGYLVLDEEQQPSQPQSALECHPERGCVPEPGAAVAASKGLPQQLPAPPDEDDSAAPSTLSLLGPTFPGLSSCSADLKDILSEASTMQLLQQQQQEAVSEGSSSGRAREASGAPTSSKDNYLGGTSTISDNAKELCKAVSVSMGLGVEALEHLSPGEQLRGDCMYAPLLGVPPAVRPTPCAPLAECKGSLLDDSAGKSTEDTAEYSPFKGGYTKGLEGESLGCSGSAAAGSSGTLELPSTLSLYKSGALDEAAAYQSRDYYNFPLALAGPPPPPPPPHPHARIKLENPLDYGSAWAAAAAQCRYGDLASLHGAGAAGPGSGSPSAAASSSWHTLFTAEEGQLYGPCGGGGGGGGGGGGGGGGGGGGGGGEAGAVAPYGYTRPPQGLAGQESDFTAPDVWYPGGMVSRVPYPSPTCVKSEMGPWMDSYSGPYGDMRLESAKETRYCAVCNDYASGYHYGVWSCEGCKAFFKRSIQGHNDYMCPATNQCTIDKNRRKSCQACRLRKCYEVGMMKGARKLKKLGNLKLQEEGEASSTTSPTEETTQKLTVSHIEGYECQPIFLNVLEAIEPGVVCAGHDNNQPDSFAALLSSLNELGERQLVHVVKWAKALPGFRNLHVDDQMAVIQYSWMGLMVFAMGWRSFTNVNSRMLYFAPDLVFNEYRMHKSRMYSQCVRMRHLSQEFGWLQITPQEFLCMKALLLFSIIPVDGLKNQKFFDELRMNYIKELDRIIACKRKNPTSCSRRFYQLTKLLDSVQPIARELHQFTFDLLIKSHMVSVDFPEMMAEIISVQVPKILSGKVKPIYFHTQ

GFP-AR = conditions: read-out: Nuclear Translocation EC50, cited from earlier work
[2] = test system: GFP-PRER (chimeric progesterone receptor with ERα DBD); conditions: result in words; cited from earlier work
[3] = AUC normalized to vehicle and DHT controls, result in words
[4] = GFP-ARER:PRL-HeLa, 2 hours, result in words

CC12CC1(C)C(=O)N(c1cc(Cl)cc(Cl)c1)C2=O (stereo not shown) [promycidone, procymidone]
nuclear translocation AUC score (k-means Cluster 3) [1, 3]: stronger AUC scores
GFP-ARER nuclear translocation [1, 4]: strongest responders

C[C@]12CCC(=O)C[C@@H]1CC[C@@H]1[C@@H]2CC[C@]2(C)[C@@H](O)CC[C@@H]12 [DHT, 5α-dihydrotestosterone]
EC50 (GFP-AR; GFP-AR:HeLa): 11 ± 2 nM

CC(C)(O)C(=O)Nc1ccc([N+](=O)[O-])c(C(F)(F)F)c1 [hydroxyflutamide]
GFP-ARER nuclear translocation [1]: strongest responders; also recorded: induced GFP-ARER nuclear translocation
nuclear translocation AUC score (k-means Cluster 3) [1]: stronger AUC scores
visible chromatin binding (PRL array spot) by GFP-ARER [1]: undetectable evidence of chromatin binding

C[C@]12CC[C@@H]3c4ccc(O)cc4CC[C@H]3[C@@H]1CCC2=O [estrone]
AUC score for nuclear translocation, chromatin binding, and receptor stabilization (k-means cluster) [1, 3]: low/moderate AUC score
GFP-ARER nuclear translocation [1, 4]: strongest responders
visible chromatin binding (PRL array spot) by GFP-ARER [1, 4]: induce a visible spot indicating chromatin binding

Cc1cc(C(C)(C)c2cc(C)c(O)c(C)c2)cc(C)c1O [tetramethyl-bisphenol A]
nuclear translocation response ([1]; supplemented ATSDR chemicals and mixtures, 0.1 nM to 10 μM (chemicals), 200-fold to 200,000-fold dilution (mixtures), 2 hours): 10-12 % of DHT response

CN(C)c1ccc([C@H]2C[C@]3(C)[C@@H](CC[C@]3(O)CCCO)[C@@H]3CCC4=CC(=O)CCC4=C32)cc1 [ZK98299]
visible chromatin binding in the GFP-PRER:PRL-HeLa cell model [2]: does not

CC#C[C@]1(O)CC[C@H]2[C@@H]3CCC4=CC(=O)CCC4=C3[C@@H](c3ccc(N(C)C)cc3)C[C@@]21C [RU486]
visible chromatin binding in the GFP-PRER:PRL-HeLa cell model [2]: induces visible chromatin binding
